Results reported in patent publication US12251387B2, “Substituted quinoxalines and benzo[c][1,2,5]oxadiazoles as DNA-PK inhibitors” (Vertex Pharmaceuticals Incorporated, priority 2013, dated 2025).

Target: DNA-PK (Homo sapiens, UniProt P78527)
Experiment: DNA-PK Inhibition Assay (standard radiometric kinase assay, 33P-ATP, peptide substrate)
Format: biochemical
Settings: radiometric assay, approximately 6 nM DNA-PK, 100 μM ATP, 45 min; fit to competitive tight-binding inhibition; read-out: Ki for the inhibition of DNA-PK
How it was run: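 Radiometric transfer of 33P from ATP (100 μM) to peptide substrate (0.8 mg/mL) by about 6 nM DNA-PK with 10 μg/mL sheared dsDNA, pH 7.5 HEPES/MgCl2, 45 min, phosphoric acid quench, filter capture and scintillation counting. Ki fitted to a competitive tight-binding inhibition model.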

Row | SMILES | Ki
1 | COCCOc1cnc(N[C@H]2CC[C@@H](Oc3cc(N4CCOCC4)cc4nccnc34)CC2)nc1 [Compound 612] | < 100 nM
2 | c1cnc2c(O[C@H]3CC[C@@H](Nc4ncc(OCCN5CCCCC5)cn4)CC3)cc(N3CCOCC3)cc2n1 [Compound 613] | < 100 nM
3 | Fc1cccc(N[C@H]2CC[C@@H](Oc3cc(N4CCOCC4)cc4nccnc34)CC2)n1 [Compound 614] | < 100 nM
4 | OCc1ccnc(N[C@H]2CC[C@@H](Oc3cc(N4CCOCC4)cc4nccnc34)CC2)c1 [Compound 615] | < 100 nM
5 | COCc1cc(N[C@H]2CC[C@@H](Oc3cc(N4CCOCC4)cc4nccnc34)CC2)nc(C)n1 [Compound 616] | < 100 nM
6 | OCc1cnc2cc(N3CCOCC3)cc(O[C@H]3CC[C@@H](Nc4ncccn4)CC3)c2n1 [Compound 617] | < 100 nM
7 | CCCc1nc(C)cc(N[C@H]2CC[C@@H](Oc3cc(N4CCOCC4)cc4nccnc34)CC2)n1 [Compound 618] | < 100 nM
8 | O=Cc1cnc2cc(N3CCOCC3)cc(O[C@H]3CC[C@@H](Nc4ncccn4)CC3)c2n1 [Compound 620] | < 100 nM
9 | c1cnc2c(O[C@H]3CC[C@@H](Nc4ncc5c(n4)OCC5)CC3)cc(N3CCOCC3)cc2n1 [Compound 621] | < 100 nM
10 | Fc1ccc(N[C@H]2CC[C@@H](Oc3cc(N4CCOCC4)cc4nccnc34)CC2)nc1 [Compound 622] | < 100 nM
11 | Cc1cccc(N[C@H]2CC[C@@H](Oc3cc(N4CCOCC4)cc4nccnc34)CC2)n1 [Compound 623] | < 100 nM
12 | CN(C)CCOc1cnc(N[C@H]2CC[C@@H](Oc3cc(N4CCOCC4)cc4nccnc34)CC2)nc1 [Compound 624] | < 100 nM
13 | COCCOc1ccc(N[C@H]2CC[C@@H](Oc3cc(N4CCOCC4)cc4nccnc34)CC2)nc1 [Compound 625] | < 100 nM
14 | CN1CCN(c2ccc(N[C@H]3CC[C@@H](Oc4cc(N5CCOCC5)cc5nccnc45)CC3)nc2)CC1 [Compound 626] | < 100 nM
15 | COc1ccnc(N[C@H]2CC[C@@H](Oc3cc(N4CCOCC4)cc4nccnc34)CC2)c1 [Compound 627] | < 100 nM
16 | CSc1nc(N[C@H]2CC[C@@H](Oc3cc(N4CCOCC4)cc4nccnc34)CC2)cs1 [Compound 628] | < 100 nM
17 | COC(c1ccc(N[C@H]2CC[C@@H](Oc3cc(N4CCOCC4)cc4nccnc34)CC2)nc1)C(F)(F)F (stereo partly drawn) [Compound 629] | < 100 nM
18 | OC(c1ccc(N[C@H]2CC[C@@H](Oc3cc(N4CCOCC4)cc4nccnc34)CC2)nc1)C(F)(F)F (stereo partly drawn) [Compound 630] | < 100 nM
19 | c1cnc2c(O[C@H]3CC[C@@H](Nc4ccc5c(n4)OCCO5)CC3)cc(N3CCOCC3)cc2n1 [Compound 631] | < 100 nM
20 | CN1CCc2nc(N[C@H]3CC[C@@H](Oc4cc(N5CCOCC5)cc5nccnc45)CC3)ncc2C1 [Compound 632] | < 100 nM
21 | CCc1ccnc(N[C@H]2CC[C@@H](Oc3cc(N4CCOCC4)cc4nccnc34)CC2)n1 [Compound 633] | < 100 nM
22 | CC(C)c1ccnc(N[C@H]2CC[C@@H](Oc3cc(N4CCOCC4)cc4nccnc34)CC2)n1 [Compound 634] | < 100 nM
23 | CCSc1nc(C)cc(N[C@H]2CC[C@@H](Oc3cc(N4CCOCC4)cc4nccnc34)CC2)n1 [Compound 635] | < 100 nM

The next lines start with the values.

Row | Ki | SMILES
24 | < 100 nM | Cc1nc(N[C@H]2CC[C@@H](Oc3cc(N4CCOCC4)cc4nccnc34)CC2)cc(C2CC2)n1 [Compound 636]
25 | < 100 nM | Cc1cc(N[C@H]2CC[C@@H](Oc3cc(N4CCOCC4)cc4nccnc34)CC2)n[nH]1 [Compound 637]
26 | < 100 nM | c1cnc2c(O[C@H]3CC[C@@H](Nc4ccc(OC5COC5)cn4)CC3)cc(N3CCOCC3)cc2n1 [Compound 638]
27 | < 100 nM | c1cnc2c(O[C@H]3CC[C@@H](Nc4ccc(OCCN5CCOCC5)cn4)CC3)cc(N3CCOCC3)cc2n1 [Compound 639]
28 | < 100 nM | c1cnc2c(O[C@H]3CC[C@@H](Nc4ccc(OCCN5CCCCC5)cn4)CC3)cc(N3CCOCC3)cc2n1 [Compound 640]
29 | < 100 nM | Fc1cc(N[C@H]2CC[C@@H](Oc3cc(N4CCOCC4)cc4nccnc34)CC2)ccn1 [Compound 642]
30 | < 100 nM | CC(C)NC(=O)c1cc(N[C@H]2CC[C@@H](Oc3cc(N4CCOCC4)cc4nccnc34)CC2)ncn1 [Compound 643]
31 | < 100 nM | Cc1cn(C)c(N[C@H]2CC[C@@H](Oc3cc(N4CCOCC4)cc4nccnc34)CC2)n1 [Compound 646]
32 | < 100 nM | c1ccc(N[C@H]2CC[C@@H](Oc3cc(N4CCOCC4)cc4nccnc34)CC2)cc1 [Compound 648]
33 | < 100 nM | Cn1ccc(N[C@H]2CC[C@@H](Oc3cc(N4CCOCC4)cc4nccnc34)CC2)n1 [Compound 649]
34 | < 100 nM | c1nc(N[C@H]2CC[C@@H](Oc3cc(N4CCOCC4)cc4nccnc34)CC2)cc(C2CC2)n1 [Compound 650]
35 | < 100 nM | CCc1cc(N[C@H]2CC[C@@H](Oc3cc(N4CCOCC4)cc4nccnc34)CC2)ncn1 [Compound 651]
36 | < 100 nM | CC(C)c1cc(N[C@H]2CC[C@@H](Oc3cc(N4CCOCC4)cc4nccnc34)CC2)ncn1 [Compound 652]
37 | < 100 nM | O=C(O)c1cc(N[C@H]2CC[C@@H](Oc3cc(N4CCOCC4)cc4nccnc34)CC2)ncn1 [Compound 653]
38 | < 100 nM | CN(C)CCOc1ccc(N[C@H]2CC[C@@H](Oc3cc(N4CCOCC4)cc4nccnc34)CC2)nc1 [Compound 654]
39 | < 100 nM | CN1CCN(CCOc2ccc(N[C@H]3CC[C@@H](Oc4cc(N5CCOCC5)cc5nccnc45)CC3)nc2)CC1 [Compound 655]
40 | < 100 nM | CN1CCC(c2cnc(N(C)[C@H]3CC[C@@H](Oc4cc(N5CCOCC5)cc5nccnc45)CC3)nc2)CC1 [Compound 657]
41 | < 100 nM | CCOc1ccc(N[C@H]2CC[C@@H](Oc3cc(N4CCOCC4)cc4nccnc34)CC2)nc1 [Compound 658]
42 | < 100 nM | COc1cc(N[C@H]2CC[C@@H](Oc3cc(N4CCOCC4)cc4nccnc34)CC2)nc(C)n1 [Compound 659]
